Laboratory results published in patent US20250025460A1, “USE OF A COMBINATION OF LEVOSIMENDAN AND AN SGLT-2 INHIBITOR TO TREAT HEART FAILURE” (Tenax Therapeutics, Inc., priority 2021, published 2025).

Assays:
[1] = follow-ups two weeks after treatment with levosimendan; cited from earlier work
[2] = in vivo; cited from earlier work
[3] = test system: phosphodiesterase-3 (PDE3); conditions: cited from earlier work
PDE4 = conditions: cited from earlier work
[4] = test system: whole cardiomyocytes and isolated contractile apparatus preparations; conditions: cited from earlier work
heart failure patients = conditions: cited from earlier work
PH-HFpEF patient = assay: HELP Study: rest and exercise right heart catheterization after 24-hour i.v. levosimendan, Patient 019-002; assay type: in vivo, human; conditions: single 24-hour open label lead-in infusion
Description: (§1) During the HELP Study, as described in PCT International Application Publication No. WO 2021/126884, the entire contents of which are incorporated by reference, Patient 019-002 was administered empagliflozin shortly after beginning levosimendan therapy.
Specifically, Patient 019-002 had established PH-HFpEF and was initially enrolled into the HELP Trial. The diagnosis of PH-HFpEF was confirmed by rest and exercise right heart catheterization. […] The PCWP of 35 mmHg at rest increased with exercise to 55 mmHg at baseline. […] Thus, levosimendan produced a 40% fall in resting PCWP and a 33% fall in exercise PCWP. In addition, at baseline the CVP was 18 mmHg and increased to 30 mmHg with exercise. Following the 24 hours of i.v. levosimendan the CVP fell to 12 mmHg at rest and to 21 mmHg with exercise. Thus, levosimendan produced a 33% fall in resting CVP, and a 30% fall in CVP with exercise. Accordingly, the response of Patient 019-002 to levosimendan treatment was typical of other patients in the study in terms of improvements to their hemodynamic profile (FIG. 1).

PH-HFpEF patients = assay: HELP Study: 6-minute walk distance; assay type: in vivo, human; conditions: PH-HFpEF patients of the HELP Study, on average, levosimendan alone
Description: 6 MWT is the abbreviation for six-minute walk test. 6 MWT is a performance-based test used to measure functional exercise capacity. The 6 MWT measures the distance an individual is able to walk over a total of 6 minutes at a constant and normal pace. (Vandoni et al. 2018)
as §1

[5] = cited from earlier work

C[C@@H]1CC(=O)NN=C1c1ccc(N)cc1 [OR-1855, (R)-6-(4-aminophenyl)-5-methyl-4,5-dihydropyridazin-3(2H)-one]
concentrations of metabolite at follow-up [1]: detectable | hemodynamic and pharmacologic properties / activity compared with levosimendan [2]: limited activity

CC(=O)Nc1ccc(C2=NNC(=O)C[C@H]2C)cc1 [OR-1896, (R)-N-(4-(4-methyl-6-oxo-1,4,5,6-tetrahydropyridazin-3-yl)phenyl) acetamide]
potency in the inhibition of PDE3 compared with levosimendan [3]: profoundly less potent | potency in the inhibition of PDE4 compared with levosimendan (PDE4): profoundly less potent | inotropic effects, potency compared with levosimendan [4]: equipotent | concentrations of metabolite at follow-up [1]: detectable | hemodynamic and pharmacologic properties / activity compared with levosimendan [2]: similar

OC[C@H]1O[C@@H](c2ccc(Cl)c(Cc3ccc(O[C@H]4CCOC4)cc3)c2)[C@H](O)[C@@H](O)[C@@H]1O [empagliflozin]
6-minute walk distance or quality of life (heart failure patients; EMBRACE HF, PH-HFpEF patients, empagliflozin alone): did not demonstrate a meaningful difference | exercise capacity as measured by change in six-minute walk distance (heart failure patients; EMPERIAL-Preserved and EMPERIAL-Reduced trials, empagliflozin alone): neither of these trials showed an improvement | exercise capacity as measured by a difference in 6 MWD (heart failure patients; HFpEF, HFrEF or PH-HFpEF patients, empagliflozin alone (EMPERIAL-Preserved, EMPERIAL-Reduced, EMBRACE HF)): did not demonstrate a material change

C[C@@H]1CC(=O)NN=C1c1ccc(NN=C(C#N)C#N)cc1 [levosimendan]
change in pulmonary capillary wedge pressure (PCWP), FIG. 1 (PH-HFpEF patient): decrease | improvement of 6-minute walk distance (PH-HFpEF patients): approximately 29 m | plasma concentration profile of the levosimendan metabolite OR-1896 ([5]; subcutaneous compared with intravenous administration of levosimendan): similar | plasma concentrations of levosimendan ([5]; subcutaneous compared with intravenous administration): lower plasma concentrations
